Publication PMC11576293, “New series of 4,6-diaryl pyrimidines: facile synthesis and antiproliferative activity as dual EGFR/VEGFR-2 inhibitors” (Frontiers in Chemistry, 2024)

What was measured:
NCI-H522 = assay: NCI-60 single-dose screen; type: cell-based; details: Homo sapiens, single dose 10 µM, '-' = no inhibition, read-out: % Growth Inhibition
In short: (§1)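 Single concentration (10 μM) per compound, assayed by the NCI DTP against its 60-line panel covering leukemia, lung, colon, CNS, melanoma, ovarian, renal, prostate and breast cancers.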

UO-31 = assay: NCI-60 single-dose screen; type: cell-based; details: Homo sapiens, single dose 10 µM, '-' = no inhibition, read-out: % Growth Inhibition
In short: as §1

CAKI-1 = assay: NCI-60 single-dose screen; type: cell-based; details: Homo sapiens, single dose 10 µM, '-' = no inhibition, read-out: % Growth Inhibition
In short: as §1

HCT-15 = assay: NCI-60 single-dose screen; type: cell-based; details: Homo sapiens, single dose 10 µM, '-' = no inhibition, read-out: % Growth Inhibition
In short: as §1

OVCAR-3 = assay: NCI-60 single-dose screen; type: cell-based; details: Homo sapiens, single dose 10 µM, '-' = no inhibition, read-out: % Growth Inhibition
In short: as §1

LOX IMVI = assay: NCI-60 single-dose screen; type: cell-based; details: Homo sapiens, single dose 10 µM, '-' = no inhibition, read-out: % Growth Inhibition
In short: as §1

MDA-MB231/ATCC = assay: NCI-60 single-dose screen; type: cell-based; details: Homo sapiens, MDA-MB-231, single dose 10 µM, '-' = no inhibition, read-out: % Growth Inhibition
In short: as §1

SNB-19 = assay: NCI-60 single-dose screen; type: cell-based; details: Homo sapiens, single dose 10 µM, '-' = no inhibition, read-out: % Growth Inhibition
In short: as §1

UACC-62 = assay: NCI-60 single-dose screen; type: cell-based; details: Homo sapiens, single dose 10 µM, '-' = no inhibition, read-out: % Growth Inhibition
In short: as §1

NCI/ADR-RES = assay: NCI-60 single-dose screen; type: cell-based; details: Homo sapiens, single dose 10 µM, '-' = no inhibition, read-out: % Growth Inhibition
In short: as §1

MOLT-4 = assay: NCI-60 single-dose screen; type: cell-based; details: Homo sapiens, single dose 10 µM, '-' = no inhibition, read-out: % Growth Inhibition
In short: as §1

Panc-1 = assay: Antiproliferative assay (MTT); type: cell-based; details: Homo sapiens, Panc-1 (pancreatic), read-out: Antiproliferative activity IC50 ± SEM, Panc-1
Text: (§2) The MTT test was employed for this investigation ([Hisham et al., 2022]; [El-Sherief et al., 2019]; [Ramadan et al., 2020]). Table 2 presents the four cancer cell lines’ median inhibitory concentration (IC50) and GI50 (average IC50) values.
(§3) The MTT test was employed for this investigation ([Hisham et al., 2022]; [El-Sherief et al., 2019]; [Ramadan et al., 2020]). The IC50 values were derived from dose-response tests. The reported data are derived from at least two independent studies, each comprising three replicates per concentration. See Supplementary Material A1 for more details.
(§4) (in 0.1% DMSO) were added (in 200 μL medium to yield a final concentration of 0.1% v/v) to the wells of plates. A single compound was designated with four wells followed by incubation of plates for 96h at 37°C. After incubation, medium was removed completely from the plates followed by addition of MTT (0.4 mg/mL in medium) to each well and subsequent incubation of plates for 3h. MTT (along with the medium) was removed and DMSO (150μL) was added to each well of the culture plates, followed by vertexing and subsequent measurement of absorbance (at 540 nm) using microplate reader. The data are shown as percentage inhibition of proliferation in comparison with controls containing 0.1% DMSO.
(§5) 4.2.1.2. Assay for antiproliferative effect […]
(§6) (10%) and 1 µg/mL each of aprotinin, leupeptin and pepstatin for 120 min. The purification was performed either at 4 °C or on ice. To record autophosphorylation level, EGFR kinase assay was carried out on the basis of DELFIA/Time-Resolved Fluorometry. The compounds were first
(§7) (1 picture or pasted object on this page, not shown here)

A-549 = assay: Antiproliferative assay (MTT); type: cell-based; details: Homo sapiens, A549, A-549 (lung), read-out: Antiproliferative activity IC50 ± SEM, A-549
Text: as §2, §3, §4, §5, §6, §7

HT-29 = assay: Antiproliferative assay (MTT); type: cell-based; details: Homo sapiens, HT-29 (colon), read-out: Antiproliferative activity IC50 ± SEM, HT-29
Text: as §2, §3, §4, §5, §6, §7

MCF-7 = assay: Antiproliferative assay (MTT); type: cell-based; details: Homo sapiens, MCF7, MCF-7 (breast), read-out: Antiproliferative activity IC50 ± SEM, MCF-7
Text: as §2, §3, §4, §5, §6, §7

| Structure (SMILES) | inhibition at 10 µM (NCI-H522) [%] | inhibition at 10 µM (UO-31) [%] | inhibition at 10 µM (CAKI-1) [%] | inhibition at 10 µM (HCT-15) [%] | inhibition at 10 µM (OVCAR-3) [%] | inhibition at 10 µM (LOX IMVI) [%] | inhibition at 10 µM (MDA-MB231/ATCC) [%] | inhibition at 10 µM (SNB-19) [%] | inhibition at 10 µM (UACC-62) [%] | inhibition at 10 µM (NCI/ADR-RES) [%] | inhibition at 10 µM (MOLT-4) [%] | IC50 (Panc-1) [nM] | IC50 (A-549) [nM] | IC50 (HT-29) [nM] | IC50 (MCF-7) [nM] | melting point [°C] |
| --- | --- | --- | --- | --- | --- | --- | --- | --- | --- | --- | --- | --- | --- | --- | --- | --- |
| COc1ccc(CSc2nc(-c3ccc(Cl)cc3)cc(-c3ccc(OC)cc3)n2)cc1 [Compound 15, 2-(4-Methoxybenzylthio)-4-(4-chlorophenyl)-6-(4-methoxyphenyl)pyrimidine] | < 0 | < 0 | < 0 | 0.53 | 5.05 | < 0 | < 0 | < 0 | < 0 | < 0 | 3.03 | 80 ± 7 | 79 ± 7 | 80 ± 7 | 82 ± 7 | 278 to 280 |
| COc1ccc(-c2cc(-c3cccc(OC)c3)nc(SC)n2)cc1 [Compound 16, 6-(3-Methoxyphenyl)-4-(4-methoxyphenyl)-2-(methylthio)pyrimidine] | 14.1 | 20 | 20.8 | 19.5 | < 0 | 0.51 | 11 | < 0 | 23.9 | 11.6 | 19.9 | 85 ± 8 | 86 ± 7 | 85 ± 8 | 89 ± 8 | 213 to 215 |
| CCSc1nc(-c2ccc(OC)cc2)cc(-c2cccc(OC)c2)n1 [Compound 17, 2-(Ethylthio)-6-(3-methoxyphenyl)-4-(4-methoxyphenyl)pyrimidine] | 5.39 | 13.7 | 9.72 | 2.62 | < 0 | 5.7 | 6.41 | < 0 | < 0 | < 0 | 4.56 | 28 ± 2 | 28 ± 2 | 29 ± 2 | 30 ± 3 | 221 to 222 |
| CCCSc1nc(-c2ccc(OC)cc2)cc(-c2cccc(OC)c2)n1 [Compound 18, 6-(3-Methoxyphenyl)-4-(4-methoxyphenyl)-2-(propylthio)pyrimidine] | < 0 | < 0 | 4 | 8.49 | < 0 | < 0 | < 0 | < 0 | < 0 | < 0 | 6.49 | 44 ± 4 | 45 ± 4 | 46 ± 4 | 46 ± 4 | 218 to 220 |
| COc1ccc(-c2cc(-c3cccc(OC)c3)nc(SC(C)C)n2)cc1 [Compound 19, 2-(Isopropylthio)-6-(3-methoxyphenyl)-4-(4-methoxyphenyl)pyrimidine] | 21 | 23.6 | 24.1 | 24.5 | < 0 | 6.05 | 17.3 | 7.53 | 25.5 | 9.86 | 23.8 | 30 ± 2 | 29 ± 2 | 30 ± 2 | 32 ± 3 | 235 to 237 |
| COc1ccc(CSc2nc(-c3ccc(OC)cc3)cc(-c3cccc(OC)c3)n2)cc1 [Compound 22, 2-(4-Methoxybenzylthio)-6-(3-methoxyphenyl)-4-(4-methoxyphenyl)pyrimidine] |  |  |  |  |  |  |  |  |  |  |  | 22 ± 2 | 21 ± 2 | 23 ± 2 | 23 ± 2 |  |
